This assay has as its target T1, DCAF1 WD40 domain (residues 1077-1390) (Homo sapiens, UniProt Q9Y4B6).
T1 construct: DCAF1 WD40 domain (residues 1077-1390)
In words: DCAF1 binding assay by SPR (Biacore 8K+), DCAF1-3 KD. The conditions noted are these: 25 °C, read-out: DCAF1-3 SPR (KD). Background: Surface plasmon resonance follows binding to a sensor surface in real time, without labels.

T1 sequence (Q9Y4B6 1077-1390): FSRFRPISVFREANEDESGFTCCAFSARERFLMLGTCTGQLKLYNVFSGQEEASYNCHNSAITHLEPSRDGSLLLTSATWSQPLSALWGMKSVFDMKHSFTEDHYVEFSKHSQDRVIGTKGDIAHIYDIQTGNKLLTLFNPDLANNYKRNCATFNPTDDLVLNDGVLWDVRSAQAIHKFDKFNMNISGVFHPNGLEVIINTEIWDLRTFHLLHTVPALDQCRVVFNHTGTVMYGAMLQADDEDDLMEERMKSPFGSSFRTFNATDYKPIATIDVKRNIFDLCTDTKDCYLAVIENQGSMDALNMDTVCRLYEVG

Regarding `Cc1ccc(F)c(C)c1-c1c(C(=O)N[C@@H](CC(N)=O)c2cccc(Cl)c2)c[nH]c1C(=O)COCCOCCOCCOCCOCCNC(=O)C[C@@H]1N=C(c2ccc(Cl)cc2)c2c(sc(C)c2C)-n2c(C)nnc21` [I-909], the dissociation constant (Kd) is under 10 µM.

Take `N#Cc1cccc(N2CCC[C@@H](Nc3cc(N4CCOCC4)ccn3)C2)c1` [I-771]: the Kd is over 200 µM.

`Cc1cccc(F)c1-c1c(C(=O)N[C@@H](CC(N)=O)c2cccc(Cl)c2)c[nH]c1C(=O)c1ncccn1` [I-648]: the Kd is under 10 µM.

In the case of `NC(=O)C[C@H](NC(=O)c1[nH]ccc1-c1ccccc1F)c1cccc(Cl)c1` [I-114], the Kd is 10 to 100 µM.

As for `NCCCCCCCCCCCCCCC(=O)c1[nH]cc(C(=O)N[C@@H](CC(N)=O)c2cccc(Cl)c2)c1-c1ccccc1F` [I-663], the dissociation constant Kd was over 200 µM.

On to `NC(=O)C[C@H](NC(=O)c1cn[nH]c1-c1ccc(F)cc1)c1cccc(Cl)c1` [I-116], for which the Kd was under 10 µM.

For `OCCC[C@@H]1C[C@@H]2[C@@H](CCCN2c2cccc(F)c2)N1c1cc(N2CCCCC2)ccn1` [I-821], the Kd was over 200 µM.

As to `NC(=O)C[C@H](NC(=O)c1cnn(Cc2cncs2)c1-c1ccccc1F)c1cccc(Cl)c1` [I-167], the Kd is over 200 µM.

With `c1ccc([C@@H]2CCC[C@H](Nc3cc(N4CCCCC4)ccn3)C2)cc1` [I-753], the Kd was 10 to 100 µM.

As for `c1ccc(-c2cc(N3CCC[C@@H](Nc4cc(N5CCOCC5)ccn4)C3)ccn2)nc1` [I-437], the Kd lay in the range of 10 to 100 µM.

In the case of `NC(=O)N1CC2(CCCN(c3cccc(F)c3)C2)Nc2cc(N3CCCCC3)ncc21` (stereo not shown) [I-1006], the Kd lay within 100 to 200 µM.

As for `COC(C)(c1cc(N2CCOCC2)ccn1)C1CCCN(c2cccc(F)c2)C1` (stereo not shown) [I-262], the Kd is over 200 µM.

For `CCCCCCC[C@@H]1CCCN(c2ccnc(N3CC[C@@H]4[C@H]3CCCN4c3cccc(F)c3)c2)C1` [I-726], the Kd is over 200 µM.

As to `CN1CCN(CCC2CCN(c3ccnc(N4CC[C@@H]5[C@H]4CCCN5c4cccc(F)c4)c3)CC2)CC1` [I-816], the Kd was under 10 µM.

Consider `Fc1cccc(NC2CCCN(c3cc(N4CCOCC4)ncn3)C2)c1` (stereo not shown) [I-179], for which the Kd was over 200 µM.

Turning to `NC(=O)OCc1cc(F)cc(N2CCC[C@@H]3[C@H]2CCN3c2cc(N3CC4CC(C4)C3)ccn2)c1` [I-1036], the Kd fell in the range of 10 to 100 µM.

For `Fc1cccc(N2CC[C@@H]3CCCc4cnc(N5CCOCC5)cc4N[C@H]3C2)c1` [I-363], the Kd was over 200 µM.

Regarding `Cc1sc2c(c1C)C(c1ccc(Cl)cc1)=N[C@@H](CC(=O)NCCOCCOCCOCCOCCC1CCN(c3ccnc(N4CC[C@@H]5[C@H]4CCCN5c4cccc(F)c4)c3)CC1)c1nnc(C)n1-2` [I-890], the Kd was under 10 µM.

For `Fc1cccc(N2CCC[C@@H](Nc3cc(N4C[C@H]5C[C@@H](C4)O5)ncn3)C2)c1` [I-311], the Kd was over 200 µM.

Consider `OC[C@@H]1C[C@H](Nc2cc(N3CCCCC3)ccn2)CN(c2cccc(F)c2)C1` [I-1011], for which the Kd was in the range of 10 to 100 µM.

With `Fc1cccc(N2CCC[C@@H](Nc3cc(N4CCCCC4)ncn3)C2)c1` [I-379], the Kd is over 200 µM.

Regarding `CCCCCCC[C@@H]1CCCN(c2ccnc(N3CC[C@H]4[C@@H]3CCCN4c3cccc(F)c3)c2)C1` [I-728], the Kd lay in the range of 10 to 100 µM.

Regarding `CN1CCN(c2ccnc(N[C@@H]3CCCN(c4cccc(F)c4)C3)n2)CC1` [I-315], the Kd was over 200 µM.

On to `Fc1cccc(N2CCC[C@@H](Nc3nc(N4CCOCC4)c[nH]3)C2)c1` [I-326], for which the Kd is over 200 µM.

Consider `C[C@@]1(Nc2cc(N3CCOCC3)ccn2)CCCN(c2cccc(F)c2)C1` [I-500], for which the Kd is over 200 µM.

Turning to `C[C@@H](O)c1cncc(N2CCC[C@@H](Nc3cc(N4CCOCC4)ccn3)C2)c1` [I-484], the Kd is over 200 µM.

With `OCCCCCCCCC1CCN(c2ccnc(N3CC[C@@H]4[C@H]3CCCN4c3cccc(F)c3)c2)CC1` [I-977], the dissociation constant Kd was 10 to 100 µM.

Turning to `NC(=O)C[C@@](NC(=O)c1c[nH]nc1-c1ccccc1F)(c1ccccc1)c1cccc(Cl)c1` [I-256], the Kd is over 200 µM.

`c1cc(C2CC2)cc(N2CCC[C@@H](Nc3cc(N4CCOCC4)ccn3)C2)c1` [I-526]: the Kd was in the range of 10 to 100 µM.

Consider `Fc1cccc(N2CCC[C@@H](Nc3cccc(N4CCOCC4)c3)C2)c1` [I-380], for which the Kd is over 200 µM.

Take `COCCOCCOCC[C@@H]1CN(c2cc(N3CCCCC3)ccn2)[C@H]2CCCN(c3cccc(F)c3)[C@@H]12` [I-950]: the Kd lay within 10 to 100 µM.

Turning to `Cc1sc2c(c1C)C(c1ccc(Cl)cc1)=N[C@@H](CC(=O)NCCOCCOCCOCCOCCOCCOCCOCCn1cc(C(=O)N[C@@H](CC(N)=O)c3cccc(Cl)c3)c(-c3ccccc3F)n1)c1nnc(C)n1-2` [I-888], the Kd was over 200 µM.

In the case of `Cc1cccc(N2CCC[C@@H](Nc3cc(N4CCOCC4)ccn3)C2)c1` [I-510], the Kd fell in the range of 100 to 200 µM.

Turning to `NC(=O)C[C@H](NC(=O)c1cn[nH]c1-c1ccccc1F)c1ccccc1C(N)=O` [I-352], the Kd is over 200 µM.

Regarding `COc1cc(N2CCC[C@@H](Nc3cc(N4CCOCC4)ccn3)C2)cnc1CO` [I-854], the Kd is 10 to 100 µM.

Take `Cc1sc2c(c1C)C(c1ccccc1)=N[C@@H](CC(=O)NCCOCCOCCOCCOCCOCCOCCn1cc(C(=O)N[C@@H](CC(N)=O)c3cccc(Cl)c3)c(-c3ccccc3F)n1)c1nnc(C)n1-2` [I-493]: the Kd is over 200 µM.

Take `c1ccc2c(N3CCC[C@@H](Nc4cc(N5CCOCC5)ccn4)C3)nncc2c1` [I-65]: the Kd fell in the range of 100 to 200 µM.

Take `CN(c1nccc(N2CCOCC2)n1)[C@@H]1CCCN(c2cccc(F)c2)C1` [I-39]: the Kd is over 200 µM.

On to `C[C@@H](NC(=O)c1cn[nH]c1-c1c(F)cccc1F)c1ncc[nH]1` [I-839], for which the Kd was over 200 µM.

Consider `c1ccc2c(N3CCC[C@@H](Nc4cc(N5CCOCC5)ccn4)C3)noc2c1` [I-73], for which the dissociation constant (Kd) was 100 to 200 µM.

Turning to `C=CC(=O)NCCCCN1CCN(c2ccnc(N(CCCOCCOCCOCCOCCNC(=O)C[C@@H]3N=C(c4ccc(Cl)cc4)c4c(sc(C)c4C)-n4c(C)nnc43)[C@@H]3CCCN(c4cccc(F)c4)C3)c2)CC1` [I-906], the Kd lay within 100 to 200 µM.

In the case of `Cc1ccc(Cl)cc1[C@H](CC(N)=O)NC(=O)c1cn[nH]c1-c1ccccc1F` [I-583], the equilibrium dissociation constant (Kd) is under 10 µM.

`Cc1sc2c(c1C)C(c1ccc(Cl)cc1)=N[C@@H](CC(=O)NCCCCCCCCCCCCC(=O)c1[nH]cc(C(=O)C[C@@H](CC(N)=O)c3cccc(Cl)c3)c1-c1ccccc1F)c1nnc(C)n1-2` [I-892]: the dissociation constant (Kd) was over 200 µM.

For `Cc1ccc(-c2[nH]ncc2C(=O)N[C@@H](CC(N)=O)c2cccc(Cl)c2)cc1` [I-103], the Kd is under 10 µM.

Regarding `NC(=O)NCc1cccc(N2CCC[C@H]3[C@@H]2CCN3c2cc(N3CCCCC3)ccn2)c1` [I-953], the Kd is under 10 µM.

Take `c1cc(N2CCOCC2)cc(N[C@@H]2CCCN(c3ccc4c(c3)CCC4)C2)n1` [I-872]: the Kd was over 200 µM.

For `c1cnc2c(N3CCC[C@@H](Nc4cc(N5CCOCC5)ccn4)C3)nccc2c1` [I-64], the Kd lay within 100 to 200 µM.

Regarding `NC(=O)[C@H]1CCN(C(=O)c2c[nH]nc2-c2ccccc2F)[C@@H]1c1cccc(Cl)c1` [I-203], the equilibrium dissociation constant (Kd) is over 200 µM.

Consider `Fc1cccc(N2CCCC(N3CCc4c(N5CCCCC5)ccnc43)C2)c1` (stereo not shown) [I-789], for which the Kd was under 10 µM.

Consider `OC[C@H]1CC[C@H](Nc2cc(N3CCCCC3)ccn2)CC1` [I-847], for which the Kd was over 200 µM.

In the case of `CCN1CCN(c2ccnc(N[C@@H]3CCCN(c4cccc(F)c4)C3)n2)CC1` [I-316], the Kd was over 200 µM.

In the case of `NC(=O)C[C@H](NC(=O)c1cn[nH]c1[C@@H]1CCCOC1)c1cccc(Cl)c1` [I-346], the Kd was over 200 µM.

`COCCOCCC1CN(c2cc(N3CCOCC3)ccn2)[C@@H]2CCCN(c3cccc(F)c3)[C@H]12` (stereo partly shown) [I-828]: the Kd is over 200 µM.

Consider `NC(=O)C[C@H](NC(=O)c1c[nH]nc1-c1cc(F)ccc1F)c1cccc(Cl)c1` [I-267], for which the dissociation constant Kd was over 200 µM.

As for `CCOC(=O)Cc1ccncc1N1CCC[C@@H](Nc2cc(N3CCOCC3)ccn2)C1` [I-766], the Kd was 10 to 100 µM.

As to `Fc1cccc(N2CCCC(C3(c4cc(N5CCOCC5)ccn4)CC3(F)F)C2)c1` (stereo not shown) [I-261], the equilibrium dissociation constant (Kd) is over 200 µM.

For `NC(=O)C[C@H](NC(=O)c1c[nH]c(Cc2ccccc2)c1-c1c(F)cccc1F)c1cccc(Cl)c1` [I-566], the Kd is under 10 µM.

On to `Fc1cccc(N2CCC[C@@H](Nc3cc(N4CCOCC4)ncn3)C2)c1` [I-1], for which the Kd fell in the range of 100 to 200 µM.

For the compound `Fc1cccc(N2CCC[C@@H](Nc3cc(C4CCCCC4)ccn3)C2)c1` [I-91], the Kd is over 200 µM.

`NC(=O)C[C@H](NC(=O)c1cn[nH]c1CC1CCCCC1)c1cccc(Cl)c1` [I-582]: the Kd was under 10 µM.

With `N[C@@H](c1ccccc1)c1ccc(N2CCC[C@@H](Nc3cc(N4CCOCC4)ccn3)C2)cc1` [I-683], the Kd was in the range of 10 to 100 µM.

As to `CCN1CCN(c2ccnc(NC3CCCN(c4cccc(F)c4)C3)n2)CC1` (stereo not shown) [I-24], the Kd was over 200 µM.

Consider `C#Cc1cccc(F)c1-c1[nH]ncc1C(=O)N[C@@H](CC(N)=O)c1cccc(Cl)c1` [I-591], for which the Kd is under 10 µM.

For the compound `COCCOCCc1[nH]cc(C(=O)N[C@@H](CC(N)=O)c2cccc(Cl)c2)c1-c1ccccc1F` [I-557], the Kd was under 10 µM.

With `c1csc(-c2ccc(N3CCC[C@@H](Nc4cc(N5CCOCC5)ccn4)C3)cc2)c1` [I-695], the equilibrium dissociation constant (Kd) lay within 10 to 100 µM.

As to `Fc1cccc(N2CCC[C@@H](Nc3ccnc(N4CCOCC4)c3)C2)c1` [I-18], the Kd was over 200 µM.

In the case of `O=S(=O)(c1cc(N2CCOCC2)ccn1)C1CCCN(c2cccc(F)c2)C1` (stereo not shown) [I-264], the Kd was over 200 µM.

For `Fc1cccc(N2CCC[C@@H](Nc3cc([C@@H]4CCCCO4)ccn3)C2)c1` [I-94], the Kd is over 200 µM.

Take `c1cc2ccc(N3CCC[C@@H](Nc4cncc(N5CCOCC5)c4)C3)cc2cn1` [I-366]: the Kd is under 10 µM.

For `O=C1NCCc2c1cccc2N1CCC[C@@H](Nc2cc(N3CCOCC3)ccn2)C1` [I-778], the dissociation constant Kd was over 200 µM.

On to `O[C@H]1CCCN(c2ccnc(N3CC[C@H]4[C@@H]3CCCN4c3cccc(F)c3)c2)C1` [I-797], for which the Kd is 10 to 100 µM.

For the compound `CCCCN1CCN(c2ccnc(N[C@@H]3CCCN(c4cccc(F)c4)C3)c2)CC1` [I-318], the Kd is over 200 µM.

Turning to `N#Cc1ccc(-c2[nH]ncc2C(=O)N[C@@H](CC(N)=O)c2cccc(Cl)c2)cc1` [I-128], the Kd was 10 to 100 µM.

As a reminder, the Kd is a measure of binding affinity in units of concentration.

The values above are taken from patent US20260373266A1, “PROTEIN DEGRADERS AND USES THEREOF” (KYMERA THERAPEUTICS, INC., priority 2022, published 2026).
